We go through 21 compounds from US8796313B2, “Substituted dihydroisoindolones as allosteric modulators of glucokinase” (Janssen Pharmaceutica N.V., priority 2005, dated 2014).

pEC50: −log10 of the molar value.

This assay addresses T1, human pancreas Glucokinase (GK) (Homo sapiens, UniProt P35557).
T1 construct: His6; made in house; host or cells: Escherichia coli
T1 sequence (P35557 1-465): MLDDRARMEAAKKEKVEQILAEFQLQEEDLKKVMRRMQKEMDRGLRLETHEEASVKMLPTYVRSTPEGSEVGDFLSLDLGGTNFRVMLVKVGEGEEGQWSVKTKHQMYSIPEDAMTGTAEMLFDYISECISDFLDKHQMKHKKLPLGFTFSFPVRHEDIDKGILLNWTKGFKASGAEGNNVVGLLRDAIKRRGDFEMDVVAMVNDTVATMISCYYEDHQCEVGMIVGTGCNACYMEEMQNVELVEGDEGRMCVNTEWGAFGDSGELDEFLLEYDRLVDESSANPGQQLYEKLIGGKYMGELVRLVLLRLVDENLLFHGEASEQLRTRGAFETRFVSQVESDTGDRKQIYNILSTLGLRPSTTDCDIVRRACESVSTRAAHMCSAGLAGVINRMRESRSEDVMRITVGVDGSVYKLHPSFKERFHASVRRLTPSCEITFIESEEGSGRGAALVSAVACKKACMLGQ
Briefly: Glucokinase enzyme assay, pancreas GK. In kind it is biochemical. The conditions noted are these: for pEC50: concentration that produces 50% activation above vehicle control; for EC100%: concentration that produces 100% activation above vehicle control; for activation at 50 µM: increase in GK activity above vehicle control, compound 50 μM, 12 mM glucose; for % Activation @ 5 μM: cell states @ 5 μM instead of the head's 50 μM. The source says: An enzymatic Glucokinase (GK) assay using purified recombinant human liver/pancreas enzyme was used to evaluate the effects of potential small molecule modulators.
In this assay, GK catalyzes glucose phosphorylation in the presence of ATP. The product of this reaction, glucose-6-phosphate, was then oxidized by an excess of glucose-6-phosphate dehydrogenase to produce gluconate-6-phosphate with concomitant reduction of nicotinamide adenine dinucleotide (NAD). […] Human GK (Liver/Pancreas) was expressed in Escherichia coli as a (His) 6-tagged fusion protein and was purified by metal chelate affinity chromatography. The assay was performed in a final incubation volume of 80 μl in a 96-well clear low UV absorption plates. The incubation mixture consisted of 25 mM HEPES, 2 mM MgSO4, 1 mM dithiothreotol (DTT), 1 mg/mL bovine serum albumin (BSA), 1 mM ATP, 1 mM NAD, and 12 mM glucose, 10 units per mL glucose-6-phosphate dehydrogenase, and +/−300 ng per mL GK. For determination of the affinity (Km) and Vmax, different concentrations of glucose ranging from 0.5 mM to 40 mM were used in the assay; see Grimsby, J., Sarabu, R.; Grippo, J. F.; et. al. Science 2003, 301, 370-373. […] EC50% (μM) was calculated as the effective concentration of the compound that produces 50% activation above the vehicle control, and EC100% (μM) was calculated as the effective concentration of the compound that produces 100% activation above the vehicle control.

The term pEC50 denotes the EC50 on a negative log10 scale, so that one unit is a factor of ten. A high value points to a low EC50. For `O=C(CCC1c2c(F)cccc2C(=O)N1Cc1ccc(F)cc1)Nc1cc2ccccc2cn1` (stereo not drawn) [Compound 29, 3-[7-Fluoro-2-(4-fluoro-benzyl)-3-oxo-2,3-dihydro-1H-isoindol-1-yl]-N-isoquinolin-3-yl-propionamide], the pEC50 was 7.34, the “EC100%” value turned out to be 0.32 µM and the activation at 50 µM was 212%.
For `COCOCc1ccc(NC(=O)CCC2c3c(F)cccc3C(=O)N2Cc2ccc(F)cc2)nc1` (stereo not drawn) [Compound 30, 3-[7-Fluoro-2-(4-fluoro-benzyl)-3-oxo-2,3-dihydro-1H-isoindol-1-yl]-N-(5methoxymethoxymethyl-pyridin-2-yl)-propionamide] the same measures were 6.64, 1.2 µM and 175%.
As to `O=C(CCC1c2c(F)cccc2C(=O)N1Cc1ccc(F)cc1)Nc1ccc(-c2ccccc2)cn1` (stereo not drawn) [Compound 31, 3-[7-Fluoro-2-(4-fluoro-benzyl)-3-oxo-2,3-dihydro-1H-isoindol-1-yl]-N-(5-phenyl-pyridin-2-yl)-propionamide], the pEC50 is 5.72, the “EC100%” value worked out at 300 µM and the activation at 50 µM stood at 64.1%.
On to `O=C(CCC1c2c(F)cccc2C(=O)N1Cc1ccc(F)cc1)Nc1ccc(Br)cn1` (stereo not drawn) [Compound 32, N-(5-Bromo-pyridin-2-yl)-3-[7-fluoro-2-(4-fluoro-benzyl)-3-oxo-2,3-dihydro-1H-isoindol-1-yl]-propionamide], for which the pEC50 is 7.89, the “EC100%” value amounted to 0.39 µM and the activation at 50 µM was found to be 147%.
For `O=C(CCC1c2c(F)cccc2C(=O)N1Cc1ccc(F)cc1)Nc1ccc(-c2ccc(F)cc2)cn1` (stereo not drawn) [Compound 33, 3-[7-Fluoro-2-(4-fluoro-benzyl)-3-oxo-2,3-dihydro-1H-isoindol-1-yl]-N-[5-(4-fluoro-Phenyl)-pyridin-2-yl]-propionamide], the pEC50 was 6.31, the “EC100%” value was 4.5 µM and the activation at 50 µM came out at 177%.
For `NS(=O)(=O)c1ccc(NC(=O)CCC2c3c(F)cccc3C(=O)N2Cc2ccc(F)cc2)nc1` (stereo not drawn) [Compound 34, 3-[7-Fluoro-2-(4-fluoro-benzyl)-3-oxo-2,3-dihydro-1H-isoindol-1-yl]-N-(5-sulfamoyl-pyridin-2-yl)-propionamide], the pEC50 is 6.39, the “EC100%” value was 4.3 µM and the activation at 50 µM was 142%.
For `O=C(CCC1c2cccc(Cl)c2C(=O)N1Cc1ccc(F)cc1)Nc1ccccn1` (stereo not drawn) [Compound 35, 3-[4-chloro-2-(4-fluoro-benzyl)-3-oxo-2,3-dihydro-1H-isoindol-1-yl]-N-pyridin-2-yl-propionamide], the negative logarithm of the EC50 (pEC50) is 6.64, the “EC100%” value worked out at 0.75 µM and the activation at 50 µM amounted to 306%.
`O=C(CCC1c2c(Cl)cccc2C(=O)N1Cc1ccc(F)cc1)Nc1ccccn1` (stereo not drawn) [Compound 36, 3-[7-Chloro-2-(4-fluoro-benzyl)-3-oxo-2,3-dihydro-1H-isoindol-1-yl]-N-pyridin-2-yl-propionamide]: the negative-log EC50 (pEC50) was 6.84, the “EC100%” value is 0.411 µM and the activation at 50 µM stood at 342%.
For `CC(=O)c1ccc(NC(=O)CCC2c3c(F)cccc3C(=O)N2Cc2ccc(F)cc2)nc1` (stereo not drawn) [Compound 37, N-(5-Acetyl-pyridin-2-yl)-3-[7-fluoro-2-(4-fluoro-benzyl)-3-oxo-2,3-dihydro-1H-isoindol-1-yl]-propionamide] the same measures were 7.27, 0.225 µM and 259%.
`O=C(CCC1c2cccc(Cl)c2C(=O)N1Cc1ccc(F)cc1)Nc1ccc(Br)cn1` (stereo not drawn) [Compound 38, N-(5-Bromo-pyridin-2-yl)-3-[4-chloro-2-(4-fluoro-benzyl)-3-oxo-2,3-dihydro-1H-isoindol-1-yl]-propionamide]: the pEC50 was 6.76, the “EC100%” value was found to be 0.615 µM and the activation at 50 µM came to 309%.
Taken in the same sequence, the figures for `O=C(CCC1c2c(Cl)ccc(Cl)c2C(=O)N1Cc1ccc(F)cc1)Nc1ccccn1` (stereo not drawn) [Compound 39, 3-[4,7-Dichloro-2-(4-fluoro-benzyl)-3-oxo-2,3-dihydro-1H-isoindol-1-yl]-N-pyridin-2-yl-propionamide] were 6.36, 2.5 µM and 206%.
`O=C(CCC1c2c(F)cccc2C(=O)N1Cc1ccc(F)cc1)Nc1cccc[n+]1[O-]` (stereo not drawn) [Compound 40, 3-[7-Fluoro-2-(4-fluoro-benzyl)-3-oxo-2,3-dihydro-1H-isoindol-1-yl]-N-(1-oxy-pyridin-2-yl)-propionamide] displayed an activation at 50 µM of 52.3%.
Turning to `Cc1ccc(NC(=O)CCC2c3c(F)cccc3C(=O)N2Cc2ccc(F)cc2)nc1` (stereo not drawn) [Compound 41, 3-[7-Fluoro-2-(4-fluoro-benzyl)-3-oxo-2,3-dihydro-1H-isoindol-1-yl]-N-(5-methyl-pyridin-2-yl)-propionamide], the pEC50 is 7.27, the “EC100%” value came out at 0.48 µM and the activation at 50 µM was 191%.
For `O=C(CCC1c2c(F)cccc2C(=O)N1Cc1ccc(-n2cccc2)cc1)Nc1ccc(F)cn1` (stereo not drawn) [Compound 42, 3-[7-Fluoro-3-oxo-2-(4-pyrol-1-yl-benzyl)-2,3-dihydro-1H-isoindol-1-yl]-N-(5-fluoro-pyridin-2-yl)-propionamide] the same measures were 6.74, 1.7 µM and 168%.
`O=C(CCC1c2c(F)cccc2C(=O)N1Cc1ccc(F)cc1)Nc1ccc(Cl)nn1` (stereo not drawn) [Compound 43, N-(6-Chloro-pyridazin-3-yl)-3-[7-fluoro-2-(4-fluoro-benzyl)-3-oxo-2,3-dihydro-1H-isoindol-1-yl]-Propionamide]: the pEC50 is 6.20, the “EC100%” value turned out to be 5.2 µM and the activation at 50 µM came to 152%.
As to `O=C(CCC1c2c(F)cccc2C(=O)N1Cc1ccc(F)cc1)Nc1ccc(Cl)cn1` (stereo not drawn) [Compound 44, N-(5-Chloro-pyridin-2-yl)-3-[7-fluoro-2-(4-fluoro-benzyl)-3-oxo-2,3-dihydro-1H-isoindol-1-yl]-propionamide], the “% Activation @ 5 μM” value is given as 168 @ 5 μM %, the negative logarithm of the EC50 (pEC50) is 7.15 and the “EC100%” value was 0.375 µM.
For `CCOC(=O)/C=C/c1ccc(NC(=O)CCC2c3c(F)cccc3C(=O)N2Cc2ccc(F)cc2)nc1` (stereo not drawn) [Compound 45, 3-(6-{3-[7-Fluoro-2-(4-fluoro-benzyl)-3-oxo-2,3-dihydro-1H-isoindol-1-yl]-propionylamino}-pyridin-3-yl)-acrylic acid ethyl ester] the same measures were 138 @ 5 μM %, 6.90 and 0.813 µM.
On to `O=C(CCC1c2c(F)cccc2C(=O)N1Cc1ccc(F)cc1)Nc1ccc(C(=O)OCc2ccccc2)cn1` (stereo not drawn) [Compound 46, 6-{3-[7-Fluoro-2-(4-fluoro-benzyl)-3-oxo-2,3-dihydro-1H-isoindol-1-yl]-propionylamino}-nicotinic acid benzyl ester], for which the “% Activation @ 5 μM” value is reported as 133 @ 5 μM %, the negative logarithm of the EC50 (pEC50) is 6.66 and the “EC100%” value came out at 1.2 µM.
Regarding `N#Cc1ccc(NC(=O)CCC2c3c(F)cccc3C(=O)N2Cc2ccc(F)cc2)nc1` (stereo not drawn) [Compound 47, N-(5-Cyano-pyridin-2-yl)-3-[7-fluoro-2-(4-fluoro-benzyl)-3-oxo-2,3-dihydro-1H-isoindol-1-yl]-propionamide], the pEC50 was 6.38, the “EC100%” value is 15 µM and the activation at 50 µM was 114%.
For `CS(=O)(=O)c1ccc(NC(=O)CCC2c3c(F)cccc3C(=O)N2Cc2ccc(F)cc2)nc1` (stereo not drawn) [Compound 48, 3-[7-Fluoro-2-(4-fluoro-benzyl)-3-oxo-2,3-dihydro-1H-isoindol-1-yl]-N-(5-methanesulfonyl-pyridin-2-yl)-propionamide], the pEC50 was 4.77 and the activation at 50 µM is 62.8%.
Consider `CN(C)c1ccc(CN2C(=O)c3cccc(F)c3C2CCC(=O)Nc2ccc(C(=O)O)cn2)cc1` (stereo not drawn) [Compound 49, 6-{3-[2-(4-Dimethylamino-benzyl)-7-fluoro-3-oxo-2,3-dihydro-1H-isoindol-1-yl]-propionylamino}-nicotinic acid], for which the pEC50 is 7.22, the “EC100%” value stood at 0.34 µM and the activation at 50 µM stood at 212%.
